Experimental data published in patent US20110053907A1, “SUBSTITUTED PYRIMIDINES AND TRIAZINES AND THEIR USE IN CANCER THERAPY” (Auckland UniServices Limited, priority 2008, published 2011).
“Also recorded” adds a separate entry of the source.

What was measured:
[1] = tested on: PI 3-kinase in 3T3L1 adipocytes; test: Cellular irreversibility assay, insulin-stimulated phosphoSer473 PKB Western blot with and without washout; assay type: cell-based
Description: Fully differentiated 3T3L1 adipocytes were starved overnight without serum. The following day, cells were incubated for 60 min with wortmannin (100 nM) as the positive control, LY 294002 (5 μM) as the negative control, the test compounds (1 μM), or DMSO.
To test for irreversibility, cells were then either: 1) rinsed 3 times with warm medium and incubated without an inhibitor for 30 min; or 2) maintained in the same medium containing an inhibitor.
Cells were subsequently stimulated or not with insulin (100 nM, 10 min). Finally, cells were washed twice with ice-cold Phosphate Buffer Saline (PBS) (140 mM NaCl, 3 mM KCl, 6 mM Na2HPO4, 1 mM KH2PO4 (pH 7.4)) and solubilized with a lysis buffer (20 mM Tris-HCl, 138 mM NaCl, 2.7 mM KCl, 1 mM MgCl2, 1 mM CaCl2, 5% (v/v) glycerol, 1% (v/v) Nonidet P-40 (NP40), 5 mM EDTA, 20 μM leupeptin, 18 μM pepstatin, 1 mM AEBSF, 4 μg/mL aprotinin, 2 mM Na3VO4, 20 mM NaF, 1 mM DTT (pH7.4)). Lysates were kept on ice for 20 min and insoluble material was removed by centrifugation at 14,000 g for 10 min. Protein concentration was determined by colorimetric assay (BCA, Pierce).
Proteins were separated by SDS-PAGE and transferred to polyvinylidene difluoride (PVDF) membranes (Pall Corporation, USA). The membranes were incubated for 1 hr in a blocking buffer (20 mM Tris (pH 7.4), 137 mM NaCl, 0.5% (v/v) Tween 20) containing 3% (w/v) BSA (ICP Bio, Auckland, New Zealand) or non-fat milk, and then incubated overnight in the blocking buffer containing specific antibodies (phosphoSer473 PKB and total PKB) Immunoreactive proteins were detected using horseradish peroxidase-linked secondary antibodies (Dako) and enhanced chemiluminescence (ECL) according to the manufacturer's instructions (GE Healthcare, Inc.). Signals were analyzed and quantified using Fuji LAS-3000 phosphorimager and Fuji Image Gauge software.
Overnight-starved 3T3L1 adipocytes cells were incubated for 60 min with compound of Example 4 at 1 μM (lanes 7-12). […]

[2] = tested on: NZOV9; test: Cellular growth inhibition, 3H-thymidine incorporation; assay type: cell-based, human; details: five days, 3H-thymidine over last 6 hrs; fifth data column
Description: The compounds were evaluated against two early passage human cell lines NZB5 and NZOV9 (Marshall et al., Oncol. Res. 2004, 14, 297). The cells were grown in ITS medium (α-modified minimal essential medium supplemented insulin, transferrin, selenite, and 5% fetal bovine serum) and grown on 96-well tissue culture plates under an atmosphere of 5% O2, 5% CO2, and 90% N2. Individual wells contained 500-1,000 cells (depending on the growth rate) in a volume of 150 μL. Compounds were added at 10-fold concentration steps to a maximum of 20 μM and plates were incubated for five days, with ^3H-thymidine being added over the last 6 hrs. Cells were harvested and incorporated radioactivity measured. Duplicate samples were analyzed for each compound dose with multiple control samples. Data were fitted by a least-squares method to an exponential of the form y=y0+ae^−bx, where y is the radioactivity (corrected for background and normalized to 100% of the control), x is the […], and y0, a, and b are variables, and the IC50 value defined as the compound concentration reducing ^3H-thymidine levels by 50%.

[3] = tested on: human tumour xenografts; details: mouse, in vivo; cited from earlier work

Compound: COc1cccc2c1nc(C(F)F)n2-c1nc(N2CCOCC2)nc(N2CCN(C(=O)CCl)CC2)n1 [Example 4, 1-[4-[4-(Chloroacetyl)-1-piperazinyl]-6-(4-morpholinyl)-1,3,5-triazin-2-yl]-2-(difluoromethyl)-4-methoxy-1H-benzimidazole]
- insulin-stimulated phosphorylation of PKB (phosphoSer473) ([1]; 1 μM, 60 min, compound left on cells, insulin 100 nM, 10 min (lanes 7-9)): attenuated
- insulin-stimulated phosphorylation of PKB (phosphoSer473) after washout ([1]; 1 μM, 60 min, rinsed 3 times, 30 min without compound, insulin 100 nM, 10 min (lanes 10-12)): attenuated
- irreversible binding to PI 3-kinase ([1]; 3T3L1 adipocytes, FIG. 1): irreversible binding; also recorded: irreversibly bound PI 3-kinase in the cells
- melting point: 241 to 243 °C

Compound: COc1cccc2c1nc(C(F)F)n2-c1nc(N2CCOCC2)nc(N(C)[C@@H]2CCCN(C(=O)CCl)C2)n1 [Example 39, N-[(3R)-1-(chloroacetyl)piperidinyl]-4-[2-(difluoromethyl)-4-methoxy-1H-benzimidazol-1-yl]-N-methyl-6-(4-morpholinyl)-1,3,5-triazin-2-amine]
- IC50 [2]: < 0.1 µM

Compound: O=c1cc(N2CCOCC2)oc2c(-c3ccccc3)cccc12 [LY294002]
- tolerability [3]: well-tolerated

Compound: N-[(3S)-1-(chloroacetyl)piperidinyl]-4-[2-(difluoromethyl)-4-methoxy-1H-benzimidazol-1-yl]-N-methyl-6-(4-morpholinyl)-1,3,5-triazin-2-amine [Example 40]
- IC50 [2]: < 0.1 µM
